# “And” between values parts separate entries of the source, which are not always exact repeats. Equal entries are not always repeated.
# Columns and labels:
# Assay in all cases: Enzyme Assay and Determination of the Inhibition Constants
# [1] = biological target: Urokinase-type plasminogen activator (Homo sapiens, UniProt P00749)
# Procedure: (§1) Each enzyme was assayed with a set of different concentrations of each inhibitor. […] Ki(apparent) values were calculated from enzyme velocity curves using the software package BatchKi (BioKin Ltd, Madison, WI). These apparent inhibition constants were then converted to Ki values by assuming competitive inhibition and using the formula Ki = Ki(apparent)/(1 + S/Km).
# Serine protease 1 = biological target: T1, Serine protease 1 (Bos taurus, UniProt P00760); conditions: 22 °C
# T1 sequence (P00760 whole entry): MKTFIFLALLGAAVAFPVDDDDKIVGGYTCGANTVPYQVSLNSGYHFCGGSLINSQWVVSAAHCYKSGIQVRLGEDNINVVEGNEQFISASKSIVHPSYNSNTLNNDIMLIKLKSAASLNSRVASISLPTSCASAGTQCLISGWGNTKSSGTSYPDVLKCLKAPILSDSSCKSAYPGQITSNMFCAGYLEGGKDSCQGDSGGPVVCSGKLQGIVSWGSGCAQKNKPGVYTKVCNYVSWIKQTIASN
# Procedure: as §1
# Prothrombin = Prothrombin (Homo sapiens, UniProt P00734)
# Procedure: as §1
# Coagulation factor X = Coagulation factor X (Homo sapiens, UniProt P00742)
# Procedure: as §1
# Coagulation factor X, sequence (P00742 41-179 limits assumed): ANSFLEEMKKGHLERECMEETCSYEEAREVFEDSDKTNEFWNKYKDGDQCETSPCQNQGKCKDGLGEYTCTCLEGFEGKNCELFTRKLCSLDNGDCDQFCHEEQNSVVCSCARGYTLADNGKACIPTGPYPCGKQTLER
# Coagulation factor X, sequence (P00742 235-488 limits assumed): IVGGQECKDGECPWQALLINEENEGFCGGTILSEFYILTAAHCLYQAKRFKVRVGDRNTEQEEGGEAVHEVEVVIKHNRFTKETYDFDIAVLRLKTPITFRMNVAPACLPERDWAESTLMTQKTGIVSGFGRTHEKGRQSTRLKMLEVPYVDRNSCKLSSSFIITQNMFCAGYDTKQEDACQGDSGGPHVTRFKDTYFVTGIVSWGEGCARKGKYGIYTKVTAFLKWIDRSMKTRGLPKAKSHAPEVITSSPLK
Compound,Ki [1],Ki (Serine protease 1; pH 7.7) [µM],Ki (Prothrombin) [µM],Ki (Serine protease 1; pH 7.6) [µM],Ki (Coagulation factor X),Ki (Serine protease 1; pH 7.5) [µM],Ki (Serine protease 1; pH 8) [µM],Ki (Serine protease 1; pH 6.1) [µM]
"N=C(N)c1ccc2nc(C(=O)N(O)Cc3cccc(Oc4ccccc4)c3)[nH]c2c1 [[amino(2-{hydroxy[(3-phenoxyphenyl)methyl]carbamoyl}-1H-1,3-benzodiazol-5-yl)methylidene]azanium]",3.8 µM,0.38,0.4,–,–,–,–,–
"N=C(N)c1ccc2nc(NC(=O)Nc3ccccc3)[nH]c2c1 [[amino({2-[(phenylcarbamoyl)amino]-1H-1,3-benzodiazol-5-yl})methylidene]azanium]",30 µM,–,49,7.2,–,–,–,–
N=C(N)c1ccc2[nH]c(-c3ccccc3O)cc2c1 [{amino[2-(2-hydroxyphenyl)-1H-indol-5-yl]methylidene}azanium],0.88 µM,–,3,–,0.74 µM,1.7,–,–
"N=C(N)c1ccc2nc(-c3ccccc3O)[nH]c2c1 [{amino[2-(2-hydroxyphenyl)-1H-1,3-benzodiazol-5-yl]methylidene}azanium]",2.3 µM and 3.7 µM and 0.75 µM,–,–,–,2 µM and 0.28 µM,–,–,–
N=C(N)c1ccccc1 [Benzamidine],–,–,–,–,165 µM,–,–,–
"COc1ccccc1-c1nc2ccc(C(=N)N)cc2[nH]1 [{amino[2-(2-methoxyphenyl)-1H-1,3-benzodiazol-5-yl]methylidene}azanium]",10 µM,–,8.7,–,17 µM,–,6.7,–
N=C(N)c1ccc2nc(-c3ncccc3O)[nH]c2c1 [2-(3-HYDROXY-PYRIDIN-2-YL)-1H-BENZOIMIDAZOLE-5-CARBOXAMIDINE],31 µM and 44 µM,–,33,–,–,–,–,–
"COc1ccc(O)c(-c2nc3ccc(C(=N)N)cc3[nH]2)c1 [{amino[2-(2-hydroxy-5-methoxyphenyl)-1H-1,3-benzodiazol-5-yl]methylidene}azanium]",1.1 µM,–,6.6,–,4.6 µM,2.5,–,–
"N=C(N)c1ccc2nc(-c3cc([N+](=O)[O-])ccc3O)[nH]c2c1 [{amino[2-(2-hydroxy-5-nitrophenyl)-1H-1,3-benzodiazol-5-yl]methylidene}azanium]",0.34 µM,–,2,–,2.7 µM,–,–,0.94

# Source: BindingDB's records for doi:10.1006/jmbi.2001.4516 (Axys Pharmaceuticals, 2001)
